According to PMC3654204, “2-Aminoethoxydiphenyl borate activates the mechanically gated human KCNK channels KCNK 2 (TREK-1), KCNK 4 (TRAAK), and KCNK 10 (TREK-2)” (Frontiers in Pharmacology, 2013):

Legend:
Assay in all cases: two-electrode voltage clamp, Xenopus oocytes, current at +[…] mV
Type in all cases: cell-based
[1] = target: T1, hKCNK10 (TREK-2) (Homo sapiens, UniProt P57789)
T1 construct: gene KCNK10; full-length cDNA clone purchased from Imagenes, subcloned into pSGEM (cRNA, Xenopus laevis oocytes) and pCDNA3 (HEK293); K2P channels are homodimers
T1 sequence (P57789 1-538): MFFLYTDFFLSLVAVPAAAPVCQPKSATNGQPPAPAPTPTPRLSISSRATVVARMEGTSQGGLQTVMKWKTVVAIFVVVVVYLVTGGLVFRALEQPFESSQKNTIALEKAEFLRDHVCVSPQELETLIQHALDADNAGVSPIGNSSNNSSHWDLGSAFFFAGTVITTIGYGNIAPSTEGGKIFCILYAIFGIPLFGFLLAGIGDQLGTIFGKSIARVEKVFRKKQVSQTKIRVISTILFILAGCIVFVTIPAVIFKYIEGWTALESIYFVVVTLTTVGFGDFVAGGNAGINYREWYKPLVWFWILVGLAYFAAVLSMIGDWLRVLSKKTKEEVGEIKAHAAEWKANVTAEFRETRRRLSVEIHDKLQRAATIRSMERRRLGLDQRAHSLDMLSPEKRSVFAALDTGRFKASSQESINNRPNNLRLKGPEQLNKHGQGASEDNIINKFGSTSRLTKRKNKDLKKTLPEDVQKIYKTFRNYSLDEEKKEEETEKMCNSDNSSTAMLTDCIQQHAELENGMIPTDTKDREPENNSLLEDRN

[2] = target: T2, hKCNK4 (hTRAAK) (Homo sapiens, UniProt Q9NYG8); settings: activator; frog Ringer's solution, pH 7.2; EC50 could not be determined; also active in inside-out HEK293 patches
T2 construct: gene KCNK4; full-length cDNA clone in pBluescript SK+ purchased from Imagenes; cRNA injected in Xenopus laevis oocytes, pCDNA3 in HEK293; K2P channels are homodimers
T2 sequence (Q9NYG8 1-393): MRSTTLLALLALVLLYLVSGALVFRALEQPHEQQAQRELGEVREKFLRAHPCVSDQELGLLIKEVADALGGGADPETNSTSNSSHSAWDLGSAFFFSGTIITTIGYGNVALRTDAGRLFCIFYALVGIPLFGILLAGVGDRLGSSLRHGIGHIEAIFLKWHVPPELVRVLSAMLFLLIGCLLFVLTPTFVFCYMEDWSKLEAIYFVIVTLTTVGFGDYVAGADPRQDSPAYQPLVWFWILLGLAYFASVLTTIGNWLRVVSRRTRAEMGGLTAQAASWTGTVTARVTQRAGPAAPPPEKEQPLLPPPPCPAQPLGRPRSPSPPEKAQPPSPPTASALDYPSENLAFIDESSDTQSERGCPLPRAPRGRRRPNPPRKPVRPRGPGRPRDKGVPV

[3] = target: T3, hKCNK2 (hTREK-1) (Homo sapiens, UniProt O95069)
T3 construct: gene KCNK2; full-length cDNA clone in pDNR-dual purchased from Imagenes, subcloned into pSGEM; cRNA injected in Xenopus laevis oocytes; K2P channels are homodimers
T3 sequence (O95069 1-426): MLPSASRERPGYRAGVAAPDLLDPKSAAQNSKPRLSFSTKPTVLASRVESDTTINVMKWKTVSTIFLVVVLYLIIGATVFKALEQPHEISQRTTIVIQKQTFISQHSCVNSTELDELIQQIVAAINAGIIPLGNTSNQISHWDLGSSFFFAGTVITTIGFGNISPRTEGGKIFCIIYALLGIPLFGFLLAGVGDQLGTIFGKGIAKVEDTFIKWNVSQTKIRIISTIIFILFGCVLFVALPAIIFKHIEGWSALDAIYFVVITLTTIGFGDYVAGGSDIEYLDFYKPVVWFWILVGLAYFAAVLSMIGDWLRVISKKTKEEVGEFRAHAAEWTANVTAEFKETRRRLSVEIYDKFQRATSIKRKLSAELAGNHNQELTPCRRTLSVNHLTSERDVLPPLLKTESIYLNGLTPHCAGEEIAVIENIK

NCCOB(c1ccccc1)c1ccccc1 [2-APB]
EC50 [1]: 1220 ± 390 µM
fold of basal current at 1 mM [2]: 2.68 ± 0.2 fold
EC50 [3]: 486 ± 135 µM
